Paper PMC5218480 (PLoS ONE, 2017)

Tested on: MV-4-11 cells
Experiment: Gene expression microarray analysis (Affymetrix PrimeView) and GSEA
Type: cell-based, human
Set-up: RFU PODN (11730768_x_at) / Fold change /veh PODN (11730768_x_at) / RFU LINC00158 (11744669_a_at) / Fold change /veh LINC00158 (11744669_a_at) / RFU DUSP10 (11751237_a_at) / Fold change /veh DUSP10 (11751237_a_at) / RFU ID3 (11757404_x_at) / Fold change /veh ID3 (11757404_x_at) / RFU PLEKHG5 (11737974_s_at) / Fold change /veh PLEKHG5 (11737974_s_at) / RFU LRRC4B (11730491_at) / Fold change /veh LRRC4B (11730491_at) / RFU GIMAP4 (11747438_a_at) / Fold change /veh GIMAP4 (11747438_a_at) / RFU KRT8 (11758183_x_at) / Fold change /veh KRT8 (11758183_x_at) / RFU CNN1 (11734310_a_at) / Fold change /veh CNN1 (11734310_a_at) / RFU VPS37D (11726825_at) / Fold change /veh VPS37D (11726825_at) / RFU C10orf10 (11716522_x_at) / Fold change /veh C10orf10 (11716522_x_at) / RFU KIR2DL2 /// KIR2DL4 /// KIR2DL5A /// KIR2DL5B /// KIR2DS1 /// KIR2DS2 /// KIR2DS3 /// KIR2DS4 /// KIR3DL3 /// KIR3DL3 /// KIR3DS1 (11738374_at) / Fold change /veh KIR2DL2 /// KIR2DL4 /// KIR2DL5A /// KIR2DL5B /// KIR2DS1 /// KIR2DS2 /// KIR2DS3 /// KIR2DS4 /// KIR3DL3 /// KIR3DL3 /// KIR3DS1 (11738374_at) / RFU C1QL1 (11718748_at) / Fold change /veh C1QL1 (11718748_at) / RFU TMPRSS4 (11747572_a_at) / Fold change /veh TMPRSS4 (11747572_a_at) / RFU HAMP (11756126_x_at) / Fold change /veh HAMP (11756126_x_at) / RFU RNFT2 (11725882_a_at) / Fold change /veh RNFT2 (11725882_a_at) / RFU NR4A2 (11747474_a_at) / Fold change /veh NR4A2 (11747474_a_at) / RFU ABCC12 (11746883_a_at) / Fold change /veh ABCC12 (11746883_a_at) / RFU TMEM136 (11760407_x_at) / Fold change /veh TMEM136 (11760407_x_at) / RFU CLDN22 /// WWC2 (11732394_at) / Fold change /veh CLDN22 /// WWC2 (11732394_at) / RFU HLA-DPB1 (11760878_x_at) / Fold change /veh HLA-DPB1 (11760878_x_at) / RFU SPINT1 (11716480_a_at) / Fold change /veh SPINT1 (11716480_a_at) / RFU GAP43 (11754022_s_at) / Fold change /veh GAP43 (11754022_s_at) / RFU A4GNT (11735810_at) / Fold change /veh A4GNT (11735810_at) / RFU PRB3 (11715151_x_at) / Fold change /veh PRB3 (11715151_x_at) / RFU TUBB4B (11761932_at) / Fold change /veh TUBB4B (11761932_at) / RFU CAPN14 (11732068_a_at) / Fold change /veh CAPN14 (11732068_a_at) / RFU TMCC2 (11721928_a_at) / Fold change /veh TMCC2 (11721928_a_at) / RFU IRGQ (11745062_a_at) / Fold change /veh IRGQ (11745062_a_at) / RFU FAM174B (11720279_a_at) / Fold change /veh FAM174B (11720279_a_at) / RFU TMPRSS4 (11748680_a_at) / Fold change /veh TMPRSS4 (11748680_a_at) / RFU FAM212B (11763350_a_at) / Fold change /veh FAM212B (11763350_a_at) / RFU PLEKHG5 (11743358_a_at) / Fold change /veh PLEKHG5 (11743358_a_at) / RFU ZSCAN30 (11745921_a_at) / Fold change /veh ZSCAN30 (11745921_a_at) / RFU CMKLR1 (11741424_a_at) / Fold change /veh CMKLR1 (11741424_a_at) / RFU LOC101060620 /// MAPK8IP1 (11723275_at) / Fold change /veh LOC101060620 /// MAPK8IP1 (11723275_at) / RFU SPTSSB (11747773_x_at) / Fold change /veh SPTSSB (11747773_x_at) / RFU PRSS12 (11739890_at) / Fold change /veh PRSS12 (11739890_at) / RFU BIN1 (11741810_x_at) / Fold change /veh BIN1 (11741810_x_at) / RFU WNT11 (11732464_a_at) / Fold change /veh WNT11 (11732464_a_at) / RFU C10orf10 (11716521_a_at) / Fold change /veh C10orf10 (11716521_a_at) / RFU C5orf56 (11738089_at) / Fold change /veh C5orf56 (11738089_at) / RFU CYB561 (11721691_x_at) / Fold change /veh CYB561 (11721691_x_at) / RFU ANKRD19P (11752326_a_at) / Fold change /veh ANKRD19P (11752326_a_at) / RFU OR2T12 /// OR2T33 /// OR2T8 (11738714_s_at) / Fold change /veh OR2T12 /// OR2T33 /// OR2T8 (11738714_s_at) / RFU VCAN (11748164_a_at) / Fold change /veh VCAN (11748164_a_at) / RFU JSRP1 (11732532_at) / Fold change /veh JSRP1 (11732532_at) / RFU KRTAP10-11 (11738290_x_at) / Fold change /veh KRTAP10-11 (11738290_x_at) / RFU MYO3A (11730013_a_at) / Fold change /veh MYO3A (11730013_a_at) / RFU EBF3 (11725865_a_at) / Fold change /veh EBF3 (11725865_a_at) / RFU CAMK2N1 (11719241_x_at) / Fold change /veh CAMK2N1 (11719241_x_at) / RFU C5orf56 (11738088_a_at) / Fold change /veh C5orf56 (11738088_a_at) / RFU OLFML3 (11715873_a_at) / Fold change /veh OLFML3 (11715873_a_at) / RFU LOC100653217 /// NTM (11731650_a_at) / Fold change /veh LOC100653217 /// NTM (11731650_a_at) / RFU MAPK11 (11762145_a_at) / Fold change /veh MAPK11 (11762145_a_at) / RFU FIZ1 (11724087_x_at) / Fold change /veh FIZ1 (11724087_x_at) / RFU OASL (11726364_x_at) / Fold change /veh OASL (11726364_x_at) / RFU SOX15 (11748057_x_at) / Fold change /veh SOX15 (11748057_x_at) / RFU CD79A (11719716_a_at) / Fold change /veh CD79A (11719716_a_at) / RFU HIST1H1D (11736915_at) / Fold change /veh HIST1H1D (11736915_at) / RFU CASKIN2 (11723855_a_at) / Fold change /veh CASKIN2 (11723855_a_at) / RFU LOC730098 (11760151_x_at) / Fold change /veh LOC730098 (11760151_x_at) / RFU OR4N2 (11742367_at) / Fold change /veh OR4N2 (11742367_at) / RFU PRRT2 (11749266_a_at) / Fold change /veh PRRT2 (11749266_a_at) / RFU SNX32 (11753110_a_at) / Fold change /veh SNX32 (11753110_a_at) / RFU CDHR5 (11726645_a_at) / Fold change /veh CDHR5 (11726645_a_at) / RFU RCAN1 (11760418_a_at) / Fold change /veh RCAN1 (11760418_a_at) / RFU FAM167A (11723789_a_at) / Fold change /veh FAM167A (11723789_a_at) / RFU FAM26E (11764081_at) / Fold change /veh FAM26E (11764081_at) / RFU ISYNA1 (11749810_s_at) / Fold change /veh ISYNA1 (11749810_s_at) / RFU ACY1 (11761880_at) / Fold change /veh ACY1 (11761880_at) / RFU 11764098_at / Fold change /veh 11764098_at / RFU SAMD14 (11745864_x_at) / Fold change /veh SAMD14 (11745864_x_at) / RFU NPB (11741838_a_at) / Fold change /veh NPB (11741838_a_at) / RFU TMPRSS6 (11731388_a_at) / Fold change /veh TMPRSS6 (11731388_a_at) / RFU KRTAP10-2 (11738614_at) / Fold change /veh KRTAP10-2 (11738614_at) / RFU ARHGAP8 /// PRR5-ARHGAP8 (11727945_x_at) / Fold change /veh ARHGAP8 /// PRR5-ARHGAP8 (11727945_x_at) / RFU KRTAP5-7 /// NADSYN1 (11734609_at) / Fold change /veh KRTAP5-7 /// NADSYN1 (11734609_at) / RFU RASL12 (11751679_a_at) / Fold change /veh RASL12 (11751679_a_at) / RFU CDKN2B (11736163_a_at) / Fold change /veh CDKN2B (11736163_a_at) / RFU PRF1 (11729649_at) / Fold change /veh PRF1 (11729649_at) / RFU, ZNF638 /// ZNF638-IT1 / Fold change vs veh, ZNF638 /// ZNF638-IT1 / RFU, PANK3 / Fold change vs veh, PANK3 / RFU, SH3YL1 / Fold change vs veh, SH3YL1 / RFU, ZEB2 / Fold change vs veh, ZEB2 / RFU, NRIP1 / Fold change vs veh, NRIP1 / RFU, PTTG1IP / Fold change vs veh, PTTG1IP / RFU, CAPN2 / Fold change vs veh, CAPN2 / RFU, MED14 / Fold change vs veh, MED14 / RFU, SNORA58 / Fold change vs veh, SNORA58 / RFU, C1orf63 / Fold change vs veh, C1orf63 / RFU, LRRFIP1 / Fold change vs veh, LRRFIP1 / RFU, NDUFAF7 / Fold change vs veh, NDUFAF7 / RFU, SLC12A2 / Fold change vs veh, SLC12A2 / RFU, IBTK / Fold change vs veh, IBTK / RFU, ESF1 / Fold change vs veh, ESF1 / Fold change vs veh, TMEM50B / RFU, TAOK1 / Fold change vs veh, TAOK1 / RFU, ACBD3 / Fold change vs veh, ACBD3 / RFU, TMA16 / Fold change vs veh, TMA16 / RFU, RWDD3 / Fold change vs veh, RWDD3 / RFU, BCAT1 / Fold change vs veh, BCAT1 / RFU, EDEM3 / Fold change vs veh, EDEM3 / RFU, TMEM33 / Fold change vs veh, TMEM33 / RFU, WDR75 / Fold change vs veh, WDR75 / RFU, AHCTF1 / Fold change vs veh, AHCTF1 / RFU, TFRC / Fold change vs veh, TFRC / RFU, ZDHHC17 / Fold change vs veh, ZDHHC17 / RFU, NOM1 / Fold change vs veh, NOM1 / RFU, ARL8B / Fold change vs veh, ARL8B / RFU, ZBTB11 / Fold change vs veh, ZBTB11 / RFU, TAMM41 / Fold change vs veh, TAMM41 / RFU, KIAA1704 /// LOC100996395 / Fold change vs veh, KIAA1704 /// LOC100996395 / RFU, ING1 / Fold change vs veh, ING1 / RFU, TRMT61B / Fold change vs veh, TRMT61B / RFU, FUBP3 / Fold change vs veh, FUBP3 / RFU, TP53 / Fold change vs veh, TP53 / RFU, TNKS2 / Fold change vs veh, TNKS2 / RFU, ZFP14 / Fold change vs veh, ZFP14 / RFU, ACTR2 / Fold change vs veh, ACTR2 / RFU, PPP3R1 / Fold change vs veh, PPP3R1 / RFU, PIK3R1 / Fold change vs veh, PIK3R1 / RFU, HNRNPA1 / Fold change vs veh, HNRNPA1 / RFU, RNF170 / Fold change vs veh, RNF170 / RFU, ZNF28 / Fold change vs veh, ZNF28 / RFU, RNGTT / Fold change vs veh, RNGTT / RFU, OGT / Fold change vs veh, OGT / RFU, BRD1 / Fold change vs veh, BRD1 / RFU, MARS / Fold change vs veh, MARS / RFU, ZNF655 / Fold change vs veh, ZNF655 / RFU, FAHD1 / Fold change vs veh, FAHD1 / RFU, BDP1 / Fold change vs veh, BDP1 / RFU, LRRCC1 / Fold change vs veh, LRRCC1 / RFU, ARID1A / Fold change vs veh, ARID1A / RFU, ZNF146 / Fold change vs veh, ZNF146 / RFU, ZNF330 / Fold change vs veh, ZNF330 / RFU, GPN3 / Fold change vs veh, GPN3 / RFU, C9orf123 / Fold change vs veh, C9orf123 / RFU, N4BP2L2 / Fold change vs veh, N4BP2L2 / RFU, ARFIP1 / Fold change vs veh, ARFIP1 / RFU, FAM179B / Fold change vs veh, FAM179B / RFU, BCL10 / Fold change vs veh, BCL10 / RFU, UHRF1BP1L / Fold change vs veh, UHRF1BP1L / RFU, BET1 / Fold change vs veh, BET1 / RFU, CNOT2 / Fold change vs veh, CNOT2 / RFU, ZNF268 / Fold change vs veh, ZNF268 / Fold change vs veh, ZNF507 / RFU, DGCR2 / Fold change vs veh, DGCR2 / RFU, WDSUB1 / Fold change vs veh, WDSUB1 / Fold change vs veh, HSP90B1 /// MIR3652 / RFU, ADSS / Fold change vs veh, ADSS / RFU, GK / Fold change vs veh, GK / RFU, ZNF148 / Fold change vs veh, ZNF148 / RFU, TAF9 / Fold change vs veh, TAF9 / RFU, SLC1A5 / Fold change vs veh, SLC1A5 / RFU, SLMO2 / Fold change vs veh, SLMO2 / RFU, ABCC4 / Fold change vs veh, ABCC4 / RFU, LOC101060439 /// RAP1B / Fold change vs veh, LOC101060439 /// RAP1B / RFU, RFX7 / Fold change vs veh, RFX7 / RFU, GTPBP10 / Fold change vs veh, GTPBP10 / RFU, CNEP1R1 / Fold change vs veh, CNEP1R1 / RFU, BIVM-ERCC5 /// ERCC5 / Fold change vs veh, BIVM-ERCC5 /// ERCC5 / RFU, ILF3 / Fold change vs veh, ILF3 / RFU 11762660_at / Fold change /veh 11762660_at / RFU VCAN (11757783_s_at) / Fold change /veh VCAN (11757783_s_at) / RFU DDX43 (11728927_at) / Fold change /veh DDX43 (11728927_at) / RFU KRT8 (11758188_x_at) / Fold change /veh KRT8 (11758188_x_at) / RFU NKD1 (11759106_at) / Fold change /veh NKD1 (11759106_at) / RFU SRD5A1 (11742802_a_at) / Fold change /veh SRD5A1 (11742802_a_at) / RFU TPSAB1 /// TPSB2 (11721975_s_at) / Fold change /veh TPSAB1 /// TPSB2 (11721975_s_at) / RFU GSTM3 (11746129_a_at) / Fold change /veh GSTM3 (11746129_a_at) / RFU IL23R (11737362_x_at) / Fold change /veh IL23R (11737362_x_at) / RFU TMEM51 (11727254_a_at) / Fold change /veh TMEM51 (11727254_a_at) / RFU PIWIL2 (11732686_x_at) / Fold change /veh PIWIL2 (11732686_x_at) / RFU ORM1 (11744905_x_at) / Fold change /veh ORM1 (11744905_x_at) / RFU CCDC152 (11743942_at) / Fold change /veh CCDC152 (11743942_at) / RFU ECM1 (11717891_a_at) / Fold change /veh ECM1 (11717891_a_at) / RFU IL23R (11748794_a_at) / Fold change /veh IL23R (11748794_a_at) / RFU TNFAIP8L3 (11732012_x_at) / Fold change /veh TNFAIP8L3 (11732012_x_at) / RFU MBOAT4 (11741988_at) / Fold change /veh MBOAT4 (11741988_at) / RFU 11764193_at / Fold change /veh 11764193_at / RFU TMEM53 (11763286_at) / Fold change /veh TMEM53 (11763286_at) / RFU MAGEB2 (11727129_at) / Fold change /veh MAGEB2 (11727129_at) / RFU TMEM200A (11744735_a_at) / Fold change /veh TMEM200A (11744735_a_at) / RFU CCDC152 (11751479_a_at) / Fold change /veh CCDC152 (11751479_a_at) / RFU FAM211A (11726209_a_at) / Fold change /veh FAM211A (11726209_a_at) / RFU RGS16 (11746705_a_at) / Fold change /veh RGS16 (11746705_a_at) / RFU VCAN (11755009_s_at) / Fold change /veh VCAN (11755009_s_at) / RFU RHOB (11743442_s_at) / Fold change /veh RHOB (11743442_s_at) / RFU RGS16 (11720943_a_at) / Fold change /veh RGS16 (11720943_a_at) / RFU RGS16 (11720944_at) / Fold change /veh RGS16 (11720944_at) / RFU, VPS4B / Fold change vs veh, VPS4B / RFU, CREB1 / Fold change vs veh, CREB1 / RFU, DNAJC13 / Fold change vs veh, DNAJC13 / RFU, GNAQ / Fold change vs veh, GNAQ / RFU, CDK5R1 / Fold change vs veh, CDK5R1 / RFU, ZRANB3 / Fold change vs veh, ZRANB3 / RFU, CUL4A / Fold change vs veh, CUL4A / RFU, CCNY / Fold change vs veh, CCNY / RFU, UFL1 / Fold change vs veh, UFL1 / RFU, COG3 / Fold change vs veh, COG3 / RFU, DIAPH2 / Fold change vs veh, DIAPH2 / RFU, SKA2 / Fold change vs veh, SKA2 / RFU, AFF3 / Fold change vs veh, AFF3 / RFU, LMF1 / Fold change vs veh, LMF1 / RFU, IPO11 / Fold change vs veh, IPO11 / RFU, DFFB / Fold change vs veh, DFFB / RFU, FOXP1 / Fold change vs veh, FOXP1 / RFU, CARD8 / Fold change vs veh, CARD8 / RFU, STRN3 / Fold change vs veh, STRN3 / RFU, ADK / Fold change vs veh, ADK / RFU, RASSF2 / Fold change vs veh, RASSF2 / RFU, WIPF1 / Fold change vs veh, WIPF1 / RFU, LARP1B / Fold change vs veh, LARP1B / RFU, RASA1 / Fold change vs veh, RASA1 / RFU, RB1 / Fold change vs veh, RB1 / RFU, PPFIA1 / Fold change vs veh, PPFIA1 / RFU, MAT2A / Fold change vs veh, MAT2A / RFU, CCT5 / Fold change vs veh, CCT5 / RFU, WDR92 / Fold change vs veh, WDR92 / RFU, CUX1 / Fold change vs veh, CUX1 / RFU, TTC7A / Fold change vs veh, TTC7A / RFU, TMEM135 / Fold change vs veh, TMEM135 / RFU, DEPTOR / Fold change vs veh, DEPTOR / RFU, CPM / Fold change vs veh, CPM / RFU, DNAJB6 / Fold change vs veh, DNAJB6 / RFU, CACNA2D3 / Fold change vs veh, CACNA2D3 / RFU, DTX4 / Fold change vs veh, DTX4 / RFU, TFCP2 / Fold change vs veh, TFCP2 / RFU, GMCL1 /// GMCL1P1 / Fold change vs veh, GMCL1 /// GMCL1P1 / RFU, AEBP2 / Fold change vs veh, AEBP2 / RFU, SNHG1 /// SNORD22 /// SNORD25 /// SNORD26 /// SNORD27 /// SNORD28 /// SNORD29 /// SNORD31 / Fold change vs veh, SNHG1 /// SNORD22 /// SNORD25 /// SNORD26 /// SNORD27 /// SNORD28 /// SNORD29 /// SNORD31 / Fold change (Aza/veh), C12orf56 (ProbeSet 11735607_a_at) / Fold change (ACY-1035/veh), C12orf56 (ProbeSet 11735607_a_at) / Fold change (Aza/veh), FGFR1OP (ProbeSet 11751329_s_at) / Fold change (ACY-1035/veh), FGFR1OP (ProbeSet 11751329_s_at) / Fold change (Aza/veh), VPS36 (ProbeSet 11739960_a_at) / Fold change (ACY-1035/veh), VPS36 (ProbeSet 11739960_a_at) / RFU SYPL1 (11715823_x_at) / Fold change /veh SYPL1 (11715823_x_at) / RFU IGFBP7 (11715501_s_at) / Fold change /veh IGFBP7 (11715501_s_at) / RFU REEP3 (11722064_at) / Fold change /veh REEP3 (11722064_at) / RFU IGLL1 (11728026_x_at) / Fold change /veh IGLL1 (11728026_x_at): dose or concentration left out as unconfirmed
Conditions: ProbeSet 11717876_a_at; LIST D

Nc1ncn([C@@H]2O[C@H](CO)[C@@H](O)[C@H]2O)c(=O)n1 [azacitidine]
Fold change vs veh, PPFIA1: 0.68
